Article PMC10741027, “Risk Assessment of Psychotropic Drugs on Mitochondrial Function Using In Vitro Assays” (Biomedicines, 2023)
Read-outs that look alike come from different tables or passages of the source.

Key:
HepG2 cells [1] = assay: Glu/Gal assay: cellular ATP (CellTiter-Glo) after 24 h in glucose or galactose media; conditions: for AC50 / minimal effective concentration: Homo sapiens, HepG2, 24 h; for Effect on cell viability / ATP in Glu and Gal media (in words): 24 h incubation, top concentration
HepG2 cells [2] = assay: Acute extracellular flux (AEF) assay in intact HepG2 cells (Seahorse XFe96); type: cell-based, human; conditions: Homo sapiens
[3] = literature values, plasma or serum of adult humans when possible; ref 68-88 (per drug, Table 2 Cmax Reference); cited from earlier work
[4] = tested on: rat liver mitochondria (CII-linked respiration); assay: High-resolution respirometry, MMP and ROS in isolated rat liver mitochondria (Oroboros O2k); type: biochemical; conditions: for % MMP / % O2 consumption: basal succinate-driven respiration, normalized to control
Method: Mitochondria were isolated from adult Wistar Rat liver. […] The liver was homogenized with 10 passes in a loose-fitting homogenizer, followed by 10 passes in a tight-fitting homogenizer, and filtered through muslin. The tissue homogenate was then centrifuged at 1000× g for 10 min at 4 °C and the supernatants were further centrifuged at 10,000× g for 10 min. The centrifugation steps were repeated, preserving the pellet. […] Protein concentration was determined using the Bradford method with bovine serum albumin as the standard. The Oroboros® Oxygraph-2K (Oroboros Instruments, Innsbruck, Austria) was used to simultaneously analyze high-resolution respirometry and mitochondrial membrane potential (MMP). […] At the beginning of each experiment, the O2k chambers were filled with 2 mL of reaction buffer (200 mM sucrose, 25 mM KCl, 5 mM MgCl2, 4 mM KH2PO4, 5 mM MOPS, pH 7.4) and equilibrated with air at 37 °C. During the experiments, the incubation chambers were kept at constant temperature by Peltier control (±0.001 °C) and the medium was stirred using white PVDF-coated stirrers (750 rpm). […] This was followed by serial additions of the drugs to assess their dose-dependent effect on the MMP and mitochondrial respiration. Injection of RLM results in an uptake of safranin and a corresponding decline in the fluorescence signal.

CI-linked respiration = conditions: read-out: CI-linked respiration IC50, cited from earlier work
CII-linked respiration = conditions: read-out: CII-linked respiration IC50, cited from earlier work
[5] = tested on: rPFO permeabilized HepG2 cells; assay: Mitochondrial respiratory complexes in rPFO permeabilized HepG2 cells (Seahorse XF); conditions: Homo sapiens, HepG2, read-out: Pyruvate Respiration AC50
[6] = HepG2, concentration at which 50% maximum effect is observed, read-out: AC50 ATP Production
[7] = HepG2, concentration at which 50% maximum effect is observed, read-out: AC50 ECAR
[8] = HepG2, concentration at which 50% maximum effect is observed, read-out: AC50 OCR
[9] = HepG2, concentration at which 50% maximum effect is observed, read-out: AC50 Proton Leak
[10] = HepG2, concentration at which 50% maximum effect is observed, read-out: AC50 Reserve Capacity
[11] = HepG2, minimum effective concentration crossing vehicle control threshold, read-out: MEC ATP Production
[12] = HepG2, minimum effective concentration crossing vehicle control threshold, read-out: MEC OCR
[13] = HepG2, minimum effective concentration crossing vehicle control threshold, read-out: MEC Proton Leak
[14] = HepG2, minimum effective concentration crossing vehicle control threshold, read-out: MEC ECAR
[15] = HepG2, minimum effective concentration crossing vehicle control threshold, read-out: MEC Reserve Capacity
[16] = isolated mitochondria, partial inhibition
[17] = HepG2, read-out: AC50 ATP Production
[18] = HepG2, read-out: AC50 Proton Leak
[19] = HepG2, read-out: AC50 Reserve Capacity

Compound | AC50 (HepG2 cells [1]; read-out: Gal AC50) [µM] | AC50 (HepG2 cells [1]; read-out: Glu AC50) [µM] | AC50 (HepG2 cells [2]; [6]) [µM] | AC50 (HepG2 cells [2]; [7]) [µM] | AC50 (HepG2 cells [2]; [8]) [µM] | AC50 (HepG2 cells [2]; [9]) [µM] | AC50 (HepG2 cells [2]; [10]) [µM] | minimal effective concentration (HepG2 cells [1]; read-out: Gal MEC) [µM] | minimal effective concentration (HepG2 cells [1]; read-out: Glu MEC) [µM] | Cmax [3] [nM] | minimal effective concentration (HepG2 cells [2]; [11]) [µM] | other results
CCC1(c2ccccc2)C(=O)NCNC1=O [Primidone] | > 100 | > 100 | > 100 | > 100 | > 100 | > 100 | > 100 | – | – | – | – | –
COC(=O)[C@H]1[C@H]2C[C@@H]3c4[nH]c5cc(OC)ccc5c4CCN3C[C@H]2C[C@@H](OC(=O)c2cc(OC)c(OC)c(OC)c2)[C@@H]1OC [Reserpine] | 79 | 48.9 | 77.3 | – | > 100 | 36.8 | – | 19 | 6.68 | 0.4 | 59.4 | minimal effective concentration (HepG2 cells [2]; [12]): 60.3 µM; minimal effective concentration (HepG2 cells [2]; [13]): 30 µM
O=C(CCCN1CCC(O)(c2ccc(Cl)cc2)CC1)c1ccc(F)cc1 [Haloperidol] | 78.6 | 57.5 | – | – | – | – | – | 26 | 26.2 | 20 | – | % MMP ([4]; 20 μM): 88%; % O2 consumption ([4]; 20 μM): 85%; % MMP ([4]; 50 μM): 69%; % O2 consumption ([4]; 50 μM): 77%
O=C1NC(=O)C(c2ccccc2)(c2ccccc2)N1 [Phenytoin] | > 200 | > 200 | > 200 | > 200 | > 200 | > 200 | 26.6 | – | – | 30000 | 197 | minimal effective concentration (HepG2 cells [2]; [14]): 138 µM; minimal effective concentration (HepG2 cells [2]; [12]): 90.9 µM; minimal effective concentration (HepG2 cells [2]; [15]): 1.45 µM
Nc1nnc(-c2cccc(Cl)c2Cl)c(N)n1 [Lamotrigine] | > 100 | > 100 | 75.7 | > 100 | > 100 | > 100 | > 100 | – | – | 4000 | 14 | Effect on cell viability / ATP in Glu and Gal media (in words) (HepG2 cells [1]): no cytotoxicity; IC50 (CI-linked respiration; [16]): 332 µM; IC50 (CII-linked respiration; [16]): 381 µM
CCC1(c2ccccc2)C(=O)NC(=O)NC1=O [Phenobarbital] | > 100 | > 100 | – | – | – | – | – | – | – | – | – | AC50 (HepG2 cells [2]; [17]): > 100 µM; AC50 (HepG2 cells [2]; HepG2, read-out: AC50 ECAR): > 100 µM; AC50 (HepG2 cells [2]; HepG2, read-out: AC50 OCR): > 100 µM; AC50 (HepG2 cells [2]; [18]): > 100 µM; AC50 (HepG2 cells [2]; [19]): > 100 µM
CCN1CCCC1CNC(=O)c1cc(S(=O)(=O)CC)c(N)cc1OC (centres unmarked) [Amisulpride] | – | – | – | – | – | – | – | – | – | 2560 | – | Effect on cell viability / ATP in Glu and Gal media (in words) (HepG2 cells [1]): did not show any effect on ATP production in any of the media conditions
O=C1Cc2cc(CCN3CCN(c4nsc5ccccc45)CC3)c(Cl)cc2N1 [Ziprasidone] | > 40 | – | > 12.7 | – | – | 2.19 | – | 28.3 | – | 110 | 0.95 | minimal effective concentration (HepG2 cells [2]; [13]): 0.12 µM; IC50 (CI-linked respiration; pig brain mitochondria): 188 µM; IC50 (CII-linked respiration; pig brain mitochondria): 86 µM
O=C1CCc2ccc(OCCCCN3CCN(c4cccc(Cl)c4Cl)CC3)cc2N1 [Aripiprazole] | 9.17 | – | > 10 | > 10 | > 10 | – | > 10 | 5.67 | – | 700 | 3.49 | minimal effective concentration (HepG2 cells [2]; [14]): 9.2 µM; minimal effective concentration (HepG2 cells [2]; [12]): 2.06 µM; minimal effective concentration (HepG2 cells [2]; [15]): 0.344 µM
C=CC(N)CCC(=O)O (centres unmarked) [Vigabatrin] | > 1000 | > 1000 | > 1000 | > 1000 | > 1000 | > 1000 | > 1000 | – | – | 4000 | – | –
CN(C)CCCC1(c2ccc(F)cc2)OCc2cc(C#N)ccc21 (centres unmarked) [Citalopram] | > 10 | > 10 | > 10 | > 10 | > 10 | > 10 | > 10 | 7.11 | 4.43 | 100 | – | reduction in cell viability (HepG2 cells [1]; 10 µM, both media conditions, 24 h): around 40%; minimal effective concentration (HepG2 cells [2]; [13]): 7.17 µM
Cc1cc2c(s1)Nc1ccccc1N=C2N1CCN(C)CC1 [Olanzapine] | – | – | – | – | – | – | – | – | – | 20 | – | % MMP ([4]; 20 μM): 92%; % O2 consumption ([4]; 20 μM): 90%; decrease in the MMP ([4]; 50 µM): 10%; % MMP ([4]; 50 μM): 90%; % O2 consumption ([4]; 50 μM): 92%; % MMP ([4]; 50 μM, listed as olanzapine): mild dissipation of the membrane potential
OCCOCCN1CCN(C2=Nc3ccccc3Sc3ccccc32)CC1 [Quetiapine] | 79 | 76.7 | > 150 | – | > 150 | – | 124 | 57.7 | 49.3 | 1880 | 92.3 | minimal effective concentration (HepG2 cells [2]; [12]): 19 µM; minimal effective concentration (HepG2 cells [2]; [15]): 26.1 µM; AC50 [5]: > 150000 nM
C=C(C)[C@H]1Cc2c(ccc3c2O[C@@H]2COc4cc(OC)c(OC)cc4[C@@H]2C3=O)O1 [Rotenone] | 0.00605 | 27.8 | – | – | – | – | – | 0.002 | 0.29 | – | – | AC50 (HepG2 cells [2]; [17]): 0.0459 µM; AC50 (HepG2 cells [2]; HepG2, read-out: AC50 ECAR): > 1 µM; AC50 (HepG2 cells [2]; HepG2, read-out: AC50 OCR): 0.0433 µM; AC50 (HepG2 cells [2]; [18]): 0.213 µM; AC50 (HepG2 cells [2]; [19]): 0.0106 µM; minimal effective concentration (HepG2 cells [2]; HepG2, read-out: MEC ATP Production): 0.0159 µM; minimal effective concentration (HepG2 cells [2]; HepG2, read-out: MEC ECAR): 0.0274 µM; minimal effective concentration (HepG2 cells [2]; HepG2, read-out: MEC OCR): 0.0053 µM; minimal effective concentration (HepG2 cells [2]; HepG2, read-out: MEC Proton Leak): 0.012 µM; minimal effective concentration (HepG2 cells [2]; HepG2, read-out: MEC Reserve Capacity): < 0.003 µM; AC50 [5]: 7.1 nM
